Experiments:
[1] = biological target: T1, human sphingosine-1-phosphate receptor 1 (S1P1) (Homo sapiens (Human), UniProt P21453); experiment: Inhibition of cAMP production (HTRF cAMP HiRange), S1P1 CHO-K1 cells; format: cell-based; conditions: for hS1P1 cAMP pEC50: inhibition of cAMP production, S1P1 CHO-K1 cells; for Emax: CHO-K1, efficacy (SPAN) normalized to fingolimod, read-out: hS1P1 cAMP SPAN
Outline: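 CHO-K1 cells stably co-expressing human S1P1 (C-terminal Prolink tag) and EA-β-arrestin2 were grown in AssayComplete Media 6 at 37° C. and 5% CO2, plated, and incubated overnight. Agonist-driven inhibition of intracellular cAMP was read by TR-FRET with the HTRF cAMP HiRange kit on a PheraStar reader. Potency is pEC50, and efficacy (SPAN) is normalized to fingolimod.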
Target sequence in this assay (P21453 whole entry, looked up): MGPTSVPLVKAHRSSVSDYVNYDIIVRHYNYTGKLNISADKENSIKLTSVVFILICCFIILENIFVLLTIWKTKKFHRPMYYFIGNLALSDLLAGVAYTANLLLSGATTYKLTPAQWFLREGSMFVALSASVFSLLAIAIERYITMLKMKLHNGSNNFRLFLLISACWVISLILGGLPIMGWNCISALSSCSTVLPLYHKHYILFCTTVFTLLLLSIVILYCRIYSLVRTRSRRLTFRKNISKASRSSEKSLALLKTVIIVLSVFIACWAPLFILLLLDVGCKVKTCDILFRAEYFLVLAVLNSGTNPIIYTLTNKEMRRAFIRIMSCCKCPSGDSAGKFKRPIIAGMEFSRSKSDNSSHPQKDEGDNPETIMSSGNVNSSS

[2] = biological target: T1, human sphingosine-1-phosphate receptor 1 (S1P1); experiment: β-Arrestin2 recruitment assay (PathHunter), S1P1 CHO-K1 cells; format: cell-based; conditions: for hS1P1 B-arrestin2 pEC50: β-arrestin2 recruitment, S1P1 CHO-K1 cells; for Emax: CHO-K1, efficacy (SPAN) normalized to fingolimod, read-out: hS1P1 B-arrestin2 SPAN
Outline: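 Enzyme-fragment complementation read-out: agonist-driven β-arrestin2 binding to ProLink-tagged human S1P1 in stable CHO-K1 cells restores β-galactosidase, measured 1 h at room temperature after a 60 min 37° C. compound incubation. Potency as pEC50, efficacy relative to fingolimod (SPAN).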
Target sequence in this assay (P21453 whole entry, looked up): as above
Target sequence in this assay (P32121 whole entry partner, looked up): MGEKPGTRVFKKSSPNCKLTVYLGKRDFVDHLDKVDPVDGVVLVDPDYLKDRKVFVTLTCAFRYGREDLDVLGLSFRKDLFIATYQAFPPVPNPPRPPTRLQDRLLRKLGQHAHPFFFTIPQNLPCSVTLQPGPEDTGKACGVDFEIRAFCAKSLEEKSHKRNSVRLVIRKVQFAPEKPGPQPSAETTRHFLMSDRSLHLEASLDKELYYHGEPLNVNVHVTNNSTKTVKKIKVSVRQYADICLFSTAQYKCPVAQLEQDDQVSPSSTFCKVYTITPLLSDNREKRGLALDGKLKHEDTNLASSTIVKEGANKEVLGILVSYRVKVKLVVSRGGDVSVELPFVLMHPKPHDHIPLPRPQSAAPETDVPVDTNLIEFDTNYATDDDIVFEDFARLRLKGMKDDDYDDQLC

[3] = tested on: paclitaxel induced peripheral neuropathy; experiment: Reversal of allodynia induced by paclitaxel in mice (s.c. or p.o., von Frey frequency method); format: in vivo, c57bl/6 mice; conditions: Mus musculus; for inhibition in vivo at 3 mg/kg: po, 1 h, 3 mg/kg p.o., tested 60 min after dosing, read-out: Screen @ 3 mg/kg po (% MPE); for inhibition in vivo at 1 mg/kg: sc, 0.5 h, 1 mg/kg s.c., tested 30 min after dosing, read-out: Screen @ 1 mg/kg sc (% MPE)
Experimental: Compounds were tested for efficacy in mouse models of chemotherapy induced peripheral neuropathy. […] For these studies […]/6 mice are habituated to the test environment and baseline measurements of pain sensitivity are assessed. To determine mechanical responses, the threshold for responses to punctate mechanical stimuli (mechanical hyperalgesia) was tested according to the frequency method. In brief, the plantar surface of the animal hindpaw was stimulated with a single von Frey monofilament (0.4 g) for approximately 1-2 seconds. If there was a withdrawal response, it was recorded as a positive response. A response was defined as a lifting or shaking of the paw upon stimulation. This was repeated ten times for each mouse. The final measurement for each mouse is the % non-response to stimulation for the ten trials. The % non-response to stimulation is converted to a % MPE. For paclitaxel induced peripheral neuropathy, a series of injections of PAC (6 mg/kg, i.p.) on days 1, 3, 5 and 7 is used to induce peripheral neuropathy. After approximately 14 days from the initiation of PAC injections, animals are re-assessed for mechanical sensitivity. […] On test day animals are dosed with compounds either subcutaneously or orally and tested for mechanical response by the frequency method either 30 min (s.c.) or 60 min (p.o.) after drug administration. Data is presented as a % MPE. For oxaliplatin induced peripheral neuropathy, a series of injections of OXA (4 mg/kg, i.p.) on days 1-5 is used to induce peripheral neuropathy. After approximately 14 days from the initiation of PAC injections, animals are re-assessed for mechanical sensitivity. […] On test day animals are dosed with compounds subcutaneously and tested for mechanical response by the frequency method 30 min after drug administration. Data is presented as a % MPE. One or more of the compounds show reversal of chemotherapeutic induced peripheral neuropathy.

Row | SMILES | hS1P1 cAMP pEC50 [1] | hS1P1 B-arrestin2 pEC50 [2] | Emax [1] | Emax [2] | inhibition in vivo at 3 mg/kg [3] | inhibition in vivo at 1 mg/kg [3]
1 | CCC1(CC)CC(=O)c2cc(-c3nc(-c4cccnc4C)no3)ccc2O1 [Compound 564, 2,2-diethyl-6-(3-(2-methylpyridin-3-yl)-1,2,4-oxadiazol-5-yl)chroman-4-one] | >6.5 | >5 | – | – | > 50% | –
2 | CC(C)n1nnc2cc(-c3noc(-c4ccccc4N(C)C)n3)ccc21 [Compound 615, N,N-dimethyl-2-{3-[1-(propan-2-yl)-1H-1,2,3-benzotriazol-5-yl]-1,2,4-oxadiazol-5-yl}aniline] | >6.5 | >5 | – | – | > 50% | –
3 | CCC1(CC)CC(=O)c2cc(-c3nc(-c4cncc(C)c4)no3)ccc2O1 [Compound 563, 2,2-diethyl-6-(3-(5-methylpyridin-3-yl)-1,2,4-oxadiazol-5-yl)chroman-4-one] | >6.5 | >5 | – | – | < 50% | –
4 | CCC1(CC)CC(=O)c2cc(-c3nc(-c4ccc(S(N)(=O)=O)cc4)no3)ccc2O1 [Compound 106, 4-(5-(2,2-diethyl-4-oxochroman-6-yl)-1,2,4-oxadiazol-3-yl)benzenesulfonamide] | >6.5 | >5 | > 75% | > 75% | – | < 50%
5 | N#Cc1cc(-c2nc(-c3ccc4[nH]c(=O)oc4c3)no2)ccc1NCC1CC1 [Compound 726, 2-(cyclopropylmethylamino)-5-[3-(2-oxo-3H-1,3-benzoxazol-6-yl)-1,2,4-oxadiazol-5-yl]benzonitrile] | – | – | – | – | > 50% | –
6 | CCC1(CC)CC(=O)c2cc(-c3nc(-c4ccc(C(N)=O)cc4)no3)ccc2O1 [Compound 179, 4-(5-(2,2-diethyl-4-oxochroman-6-yl)-1,2,4-oxadiazol-3-yl)benzamide] | >6.5 | >5 | > 75% | > 75% | > 50% | > 50%
7 | N#Cc1cc(-c2nnc(-c3ccc4cnccc4c3)o2)ccc1NCC(F)F [Compound 733, 2-[(2,2-difluoroethyl)amino]-5-[5-(isoquinolin-6-yl)-1,3,4-oxadiazol-2-yl]benzonitrile] | – | – | – | – | > 50% | –
8 | CC(C)Nc1ccc(-c2nc(-c3ccc4[nH]c(=O)[nH]c4c3)no2)cc1C#N [Compound 728, 2-(isopropylamino)-5-(3-(2-oxo-2,3-dihydro-1H-benzo[d]imidazol-5-yl)-1,2,4-oxadiazol-5-yl)benzonitrile] | – | – | – | – | > 50% | –
9 | CC(C)Nc1ccc(-c2nnc(-c3ccc4ncccc4c3)o2)cc1C#N [Compound 736, 2-[(propan-2-yl)amino]-5-[5-(quinolin-6-yl)-1,3,4-oxadiazol-2-yl]benzonitrile] | – | – | – | – | > 50% | –
10 | N#Cc1cc(-c2nc(-c3ccc4c(c3)CNC4=O)no2)ccc1NCC1CC1 [Compound 727, 2-((cyclopropylmethyl)amino)-5-(3-(1-oxoisoindolin-5-yl)-1,2,4-oxadiazol-5-yl)benzonitrile] | – | – | – | – | > 50% | –
11 | CC(C)Nc1ccc(-c2nnc(-c3ccc4cnccc4c3)o2)cc1C#N [Compound 735, 5-[5-(isoquinolin-6-yl)-1,3,4-oxadiazol-2-yl]-2-[(propan-2-yl)amino]benzonitrile] | – | – | – | – | < 50% | –
12 | N#Cc1cc(-c2nc(-c3ccc4[nH]c(=O)[nH]c4c3)no2)ccc1NCC1CC1 [Compound 729, 2-((cyclopropylmethyl)amino)-5-(3-(2-oxo-2,3-dihydro-1H-benzo[d]imidazol-5-yl)-1,2,4-oxadiazol-5-yl)benzonitrile] | – | – | – | – | > 50% | –
13 | COc1cc(NC(C)=O)ccc1-c1nc(-c2ccncc2)no1 [Compound 582, N-{3-methoxy-4-[3-(pyridin-4-yl)-1,2,4-oxadiazol-5-yl]phenyl}acetamide] | <6.5 | <5 | – | – | – | –
14 | CC(C)Cn1nnc2cc(-c3nc4ccncc4o3)ccc21 [Compound 504, 2-(1-isobutyl-1H-benzo[d][1,2,3]triazol-5-yl)oxazolo[5,4-c]pyridine] | <6.5 | <5 | > 75% | < 75% | – | –
15 | COc1ccccc1-c1noc(-c2ccc3[nH]ncc3c2)n1 [Compound 371, 5-(1H-indazol-5-yl)-3-(2-methoxyphenyl)-1,2,4-oxadiazole] | <6.5 | <5 | – | – | – | –

The next lines start with results.

Row | hS1P1 cAMP pEC50 [1] | hS1P1 B-arrestin2 pEC50 [2] | Emax [1] | Emax [2] | SMILES | inhibition in vivo at 3 mg/kg [3] | inhibition in vivo at 1 mg/kg [3]
16 | >6.5 | >5 | – | – | N#Cc1cc(-c2nnc(-c3cccc4[nH]cnc34)o2)ccc1NCC(F)F [Compound 586, 5-[5-(1H-1,3-benzodiazol-4-yl)-1,3,4-oxadiazol-2-yl]-2-[(2,2-difluoroethyl)amino]benzonitrile] | < 50% | –
17 | >6.5 | >5 | – | – | CC(C)Nc1ccc(-c2nc(-c3ccc4c(c3)CCNC4=O)no2)cc1C#N [Compound 442, 2-(isopropylamino)-5-(3-(1-oxo-1,2,3,4-tetrahydroisoquinolin-6-yl)-1,2,4-oxadiazol-5-yl)benzonitrile] | > 50% | –
18 | >6.5 | >5 | > 75% | > 75% | CC(F)CNc1ccc(-c2nc(-c3ccc4c(c3)CCC(=O)N4)no2)cc1C#N (centres unmarked) [Compound 348, 2-[(2-fluoropropyl)amino]-5-[3-(2-oxo-1,2,3,4-tetrahydroquinolin-6-yl)-1,2,4-oxadiazol-5-yl]benzonitrile] | > 50% | –
19 | >6.5 | >5 | > 75% | > 75% | N#Cc1cc(-c2nnc(-c3ccc4[nH]ncc4c3)o2)ccc1NCC(F)F [Compound 354, 2-[(2,2-difluoroethyl)amino]-5-[5-(1H-indazol-5-yl)-1,3,4-oxadiazol-2-yl]benzonitrile] | > 50% | –
20 | >6.5 | >5 | – | – | CC(C)Nc1ccc(-c2nc(-c3ccc4c(c3)NC(=O)CC4)no2)cc1C#N [Compound 435, 2-(isopropylamino)-5-(3-(2-oxo-1,2,3,4-tetrahydroquinolin-7-yl)-1,2,4-oxadiazol-5-yl)benzonitrile] | > 50% | –
21 | >6.5 | <5 | – | – | CCC1(CC)CC(=O)c2cc(-c3nc(-c4ccc5c(c4)CCC(=O)N5)no3)ccc2O1 [Compound 415, 6-(5-(2,2-diethyl-4-oxochroman-6-yl)-1,2,4-oxadiazol-3-yl)-3,4-dihydroquinolin-2(1H)-one] | < 50% | –
22 | >6.5 | >5 | – | – | N#Cc1cc(-c2nc(-c3ccc4c(c3)NC(=O)CC4)no2)ccc1NCC1CC1 [Compound 471, 2-((cyclopropylmethyl)amino)-5-(3-(2-oxo-1,2,3,4-tetrahydroquinolin-7-yl)-1,2,4-oxadiazol-5-yl)benzonitrile] | < 50% | –
23 | >6.5 | >5 | – | – | CC(C)n1nnc2cc(-c3noc(-c4cccc5c4CCC5=O)n3)ccc21 [Compound 608, 4-{3-[1-(propan-2-yl)-1H-1,2,3-benzotriazol-5-yl]-1,2,4-oxadiazol-5-yl}-2,3-dihydro-1H-inden-1-one] | < 50% | –
24 | >6.5 | >5 | > 75% | > 75% | N#Cc1cc(-c2nnc(-c3ccc4[nH]cnc4c3)o2)ccc1NC1CC1 [Compound 598, 5-[5-(1H-1,3-benzodiazol-5-yl)-1,3,4-oxadiazol-2-yl]-2-(cyclopropylamino) benzonitrile] | < 50% | –
25 | >6.5 | >5 | – | – | CC(C)Nc1ccc(-c2nnc(-c3ccc4ncn(C)c4c3)o2)cc1C#N [Compound 579, 5-[5-(1-methyl-1H-1,3-benzodiazol-6-yl)-1,3,4-oxadiazol-2-yl]-2-[(propan-2-yl)amino]benzonitrile] | > 50% | –
